Data from patent publication US9206173B2, “Heterocyclic compounds for the treatment of stress-related conditions” (OTSUKA PHARMACEUTICAL CO., LTD., priority 2009, dated 2015).
Structures can show the parent of a compound that is named as a salt.

Legend:
[1] = target: T1, human GPR10 (Homo sapiens (Human), UniProt P49683); test: Antagonistic activity on PrRP-induced intracellular calcium mobilization in human GPR10-expressing HEK293 cells; type: cell-based; details: PrRP 1 nM-induced intracellular calcium mobilization, Fluo-8
T1 sequence (P49683 whole entry): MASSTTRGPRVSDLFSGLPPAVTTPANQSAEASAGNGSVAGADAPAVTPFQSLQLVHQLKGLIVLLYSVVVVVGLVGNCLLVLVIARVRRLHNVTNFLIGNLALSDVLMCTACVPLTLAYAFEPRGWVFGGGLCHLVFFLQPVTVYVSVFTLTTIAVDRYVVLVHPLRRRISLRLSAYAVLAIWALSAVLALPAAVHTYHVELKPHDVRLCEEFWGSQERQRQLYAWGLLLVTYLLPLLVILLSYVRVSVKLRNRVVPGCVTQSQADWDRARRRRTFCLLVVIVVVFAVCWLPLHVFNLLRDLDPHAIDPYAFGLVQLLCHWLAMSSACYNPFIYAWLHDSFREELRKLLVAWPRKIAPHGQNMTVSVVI
Description: Pharmacological Test 2 Antagonistic Activity on GPR10 Using Human GPR10-Expressing HEK293 Cells.
Antagonistic activity of test compounds on PrRP-induced intracellular calcium mobilization was evaluated using GPR10-expressing HEK293 cells.
HEK293 cells expressing human GPR10 were maintained in Dulbecco's Modified Eagles' medium supplemented with 10% fetal bovine serum, 1% penicillin-streptomycin and 20 mM HEPES at 37° C. in a 5% CO2 incubator. GPR10-expressing HEK293 cells were placed in poly-D-lysine coated 96-well culture plates and cultured for 18-24 hr before the test at a density of 3×10^4 cells/well. […] The cells were incubated with test compounds for 15 min at room temperature, and then PrRP (the final concentration, 1 nM) was added into the medium. The changes in intracellular calcium-dependent fluorescence were monitored using a fluorescence imaging plate reader (FDSS3000, Hamamatsu Photonics K.K.). Fluo-8 fluorescence was measured with excitation at 490 nm and emission at 520 nm. The calcium-dependent fluorescence intensity was calculated by subtracting basal intensity (average intensity for 30 sec before agonist stimulation) from peak intensity for 60 sec after PrRP-stimulation, and then IC50 values were determined by nonlinear curve-fitting program, GraphPad Prism 5.

[2] = target: T1, human GPR10; test: Inhibitory activity on binding of [3H]-PrRP to GPR10 (HEK 293 cell membrane fraction); details: [3H]-PrRP 1 nM, human GPR10-expressing HEK 293 cell membrane fraction; Ki from IC50 by Cheng-Prussoff formula
How it was run: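 Competition with [3H]-PrRP (1 nM final) for membranes from human GPR10-expressing HEK293 cells, 90 min at room temperature in HEPES/EDTA buffer pH 7.4; filtration and scintillation counting.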

SMILES | IC50 [1] [µM] | Ki [2] [µM]
COn1c(N[C@@H](C)c2ccc(Cl)cc2)nc2c(c1=O)CN(C(=O)COc1ccc(Cl)cc1)CC2 [Example 2430, 6-[2-(4-chlorophenoxy)acetyl]-2-[(S)-1-(4-chlorophenyl)ethylamino]-3-methoxy-5,6,7,8-tetrahydro-3H-pyrido[4,3-d]pyrimidin-4-one] | 1.18 | 0.015
CC#CCn1c(N[C@@H](C)c2ccc(C(F)(F)F)cc2)nc2c(c1=O)CN(C(=O)c1ccc(-n3ccnc3)cc1)CC2 [Example 2402, 3-(2-butynyl)-6-(4-imidazol-1-ylbenzoyl)-2-[(S)-1-(4-trifluoromethylphenyl)ethylamino]-5,6,7,8-tetrahydro-3H-pyrido[4,3-d]pyrimidin-4-one dihydrochloride] | 0.099 | 0.006
C#CCn1c(N[C@@H](C)c2ccc(C(F)(F)F)cc2)nc2c(c1=O)CN(C(=O)c1ccc(Cl)cc1)CC2 [Example 2, 6-(4-chlorobenzoyl)-3-propargyl-2-(S)-{1-[4-(trifluoromethyl)phenyl]ethylamino}-5,6,7,8-tetrahydropyrido[4,3-d]pyrimidin-4-(3H)-one hydrochloride] | 0.378 | 0.029
C[C@@H](Nc1nc2c(c(=O)n1N1CCCC1)CN(C(=O)c1ccc(C#N)cc1)CC2)c1ccc(C(F)(F)F)cc1 [Example 163] | 0.648 | 0.01
C[C@@H](Nc1nc2c(c(=O)n1N1CCCC1)CN(C(=O)c1ccc(C#N)cc1F)CC2)c1ccc(C(F)(F)F)cc1 [Example 166] | 0.298 | 0.006
C#CCCn1c(N[C@@H](C)c2ccc(C(F)(F)F)cc2)nc2c(c1=O)CN(C(=O)c1ccc(C#N)cc1)CC2 [Example 2433, 4-{3-(3-butynyl)-4-oxo-2-[(S)-1-(4-trifluoromethylphenyl)ethylamino]-3,5,7,8-tetrahydro-4H-pyrido[4,3-d]pyrimidine-6-carbonyl}benzonitrile] | 0.062 | 0.005
COn1c(N[C@@H](C)c2ccc(C(F)(F)F)cc2)nc2c(c1=O)CN(C(=O)c1ccc(Cl)cc1)CC2 [Example 10, 6-(4-chlorobenzoyl)-3-methoxy-2-(S)-{1-[4-(trifluoromethyl)phenyl]ethylamino}-5,6,7,8-tetrahydropyrido[4,3-d]pyrimidin-4-(3H)-one hydrochloride] | 0.14 | 0.017
C#CCn1c(N[C@@H](C)c2ccc(C(F)(F)F)cc2)nc2c(c1=O)CN(C(=O)c1ccc(C#N)cc1F)CC2 [Example 1, 6-(4-cyano-2-fluorobenzoyl)-3-propargyl-2-(S)-{1-[4-(trifluoromethyl)phenyl]ethylamino}-5,6,7,8-tetrahydropyrido[4,3-d]pyrimidin-4-(3H)-one hydrochloride] | 0.042 | 0.005
COn1c(N[C@@H](C)c2ccc(C(F)(F)F)cc2)nc2c(c1=O)CN(C(=O)c1ccc(C)c(C)c1)CC2 [Example 2452, 6-(3,4-dimethylbenzoyl)-3-methoxy-2-[(S)-1-(4-trifluoromethylphenyl)ethylamino]-5,6,7,8-tetrahydro-3H-pyrido[4,3-d]pyrimidin-4-one] | 1.03 | 0.004
C#CCn1c(N[C@@H](C)c2ccc(Cl)cc2)nc2c(c1=O)CN(C(=O)c1ccc(Cl)cc1)CC2 [Example 3, 6-(4-chlorobenzoyl)-3-propargyl-2-(S)-{1-[4-chlorophenyl]ethylamino}-5,6,7,8-tetrahydropyrido[4,3-d]pyrimidin-4-(3H)-one] | 1.72 | 0.042
C[C@H](Nc1nc2c(c(=O)n1N(C)C)CN(C(=O)c1ccc(C#N)cc1F)CC2)c1ccc(C(F)(F)F)cc1 [Example 5, 6-(4-cyano-2-fluorobenzoyl)-3-dimethylamino-2-(S)-{1-[4-(trifluoromethyl)phenyl]ethylamino}-5,6,7,8-tetrahydropyrido[4,3-d]pyrimidin-4-(3H)-one hydrochloride] | 0.046 | 0.008
